Experimental data: ChEMBL document CHEMBL1201862, “PubChem BioAssay data set” (2004)
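Briefly, cells in 96-well plates were exposed to five compound concentrations for 48 h, and endpoints were estimated by linear interpolation. Here, GI50 denotes the concentration required for 50% inhibition of growth.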 Calls of active or inactive are those of the source. Rule as the data show it: active = GI50 up to about 1.1 µM and inactive = higher.

What was measured:
Assay in all cases: growth of human tumour cells (NCI), 48 h
EKVX = test system: EKVX
HCT-116 = test system: HCT-116
SNB-78 = test system: SNB-78
SW-620 = test system: SW-620
LXFL 529 = test system: LXFL 529
SNB-75 = test system: SNB-75
SN12C = test system: SN12C
TK-10 = test system: TK-10
SK-MEL-2 = test system: SK-MEL-2
XF498 = test system: XF498
SK-MEL-28 = test system: SK-MEL-28
NCI-H23 = test system: NCI-H23
DMS-114 = test system: DMS-114
OVCAR-4 = test system: OVCAR-4
HT-29 = test system: HT-29
SF-295 = test system: SF-295
HL-60 = test system: HL-60
ACHN = test system: ACHN
CAKI-1 = test system: CAKI-1
OVCAR-5 = test system: OVCAR-5
SF-539 = test system: SF-539
SNB-19 = test system: SNB-19
UACC-257 = test system: UACC-257
SK-MEL-5 = test system: SK-MEL-5
NCI-H460 = test system: NCI-H460
M14 = test system: M14
K562 = test system: K562
HCT-15 = test system: HCT-15
LOX IMVI = test system: LOX IMVI
RXF 393 = test system: RXF 393
SR = test system: SR
U-251 = test system: U-251
A498 = test system: A498
Malme-3M = test system: Malme-3M
SF-268 = test system: SF-268
CCRF-CEM = test system: CCRF-CEM
MOLT-4 = test system: MOLT-4
NCI-H226 = test system: NCI-H226
A549 = test system: A549
DLD-1 = test system: DLD-1
KM12 = test system: KM12
HCC 2998 = test system: HCC 2998
RPMI-8226 = test system: RPMI-8226
OVCAR-8 = test system: OVCAR-8
IGROV-1 = test system: IGROV-1
COLO 205 = test system: COLO 205
HOP-92 = test system: HOP-92
RXF 631 = test system: RXF 631
HOP-18 = test system: HOP-18
DMS-273 = test system: DMS-273
UACC-62 = test system: UACC-62
NCI-H522 = test system: NCI-H522
OVCAR-3 = test system: OVCAR-3
HOP-62 = test system: HOP-62
786-0 = test system: 786-0
SK-OV-3 = test system: SK-OV-3
M19-MEL = test system: M19-MEL
KM-20L2 = test system: KM-20L2
UO-31 = test system: UO-31

C=C=CC(NC(=O)c1ccccc1)(C(=O)O)C(F)(F)F (configuration not stated)
GI50 (EKVX): > 100 µM (inactive) | GI50 (HCT-116): > 100 µM (inactive) | GI50 (SNB-78): > 100 µM (inactive) | GI50 (SW-620): > 100 µM (inactive) | GI50 (LXFL 529): > 100 µM (inactive) | GI50 (SNB-75): > 100 µM (inactive) | GI50 (SN12C): > 100 µM (inactive) | GI50 (TK-10): > 100 µM (inactive) | GI50 (SK-MEL-2): > 100 µM (inactive) | GI50 (XF498): > 100 µM (inactive) | GI50 (SK-MEL-28): > 100 µM (inactive) | GI50 (NCI-H23): > 100 µM (inactive) | GI50 (DMS-114): > 100 µM (inactive) | GI50 (OVCAR-4): > 10 µM (inactive) | GI50 (HT-29): > 100 µM (inactive) | GI50 (SF-295): > 100 µM (inactive) | GI50 (HL-60): > 100 µM (inactive) | GI50 (ACHN): > 100 µM (inactive) | GI50 (CAKI-1): > 10 µM (inactive) | GI50 (OVCAR-5): > 100 µM (inactive) | GI50 (SF-539): > 100 µM (inactive) | GI50 (SNB-19): > 100 µM (inactive) | GI50 (UACC-257): > 100 µM (inactive) | GI50 (SK-MEL-5): > 100 µM (inactive) | GI50 (NCI-H460): > 100 µM (inactive) | GI50 (M14): > 100 µM (inactive) | GI50 (K562): > 100 µM (inactive) | GI50 (HCT-15): > 100 µM | GI50 (LOX IMVI): > 100 µM (inactive) | GI50 (RXF 393): > 100 µM (inactive) | GI50 (SR): > 100 µM (inactive) | GI50 (U-251): > 100 µM (inactive) | GI50 (A498): > 100 µM (inactive) | GI50 (Malme-3M): > 100 µM (inactive) | GI50 (SF-268): > 100 µM (inactive) | GI50 (CCRF-CEM): > 100 µM (inactive) | GI50 (MOLT-4): > 100 µM (inactive) | GI50 (NCI-H226): > 100 µM (inactive) | GI50 (A549): > 100 µM (inactive) | GI50 (DLD-1): > 100 µM (inactive) | GI50 (KM12): > 100 µM (inactive) | GI50 (HCC 2998): > 100 µM (inactive) | GI50 (RPMI-8226): > 100 µM (inactive) | GI50 (OVCAR-8): > 100 µM (inactive) | GI50 (IGROV-1): > 100 µM (inactive) | GI50 (COLO 205): > 100 µM (inactive) | GI50 (HOP-92): > 100 µM (inactive) | GI50 (RXF 631): > 100 µM (inactive) | GI50 (HOP-18): > 100 µM (inactive) | GI50 (DMS-273): > 100 µM (inactive)

CC1(C)c2ccccc2N2C(c3ccccc3)=NOC21C (configuration not stated)
GI50 (EKVX): > 100 µM (inactive) | GI50 (HCT-116): > 100 µM (inactive) | GI50 (SNB-78): > 100 µM (inactive) | GI50 (UACC-62): > 100 µM (inactive) | GI50 (SW-620): > 100 µM (inactive) | GI50 (NCI-H522): > 100 µM (inactive) | GI50 (LXFL 529): > 100 µM (inactive) | GI50 (SNB-75): > 100 µM (inactive) | GI50 (SN12C): > 100 µM (inactive) | GI50 (TK-10): > 100 µM (inactive) | GI50 (SK-MEL-2): > 100 µM (inactive) | GI50 (SK-MEL-28): > 100 µM (inactive) | GI50 (NCI-H23): > 100 µM (inactive) | GI50 (DMS-114): > 100 µM (inactive) | GI50 (OVCAR-4): > 100 µM (inactive) | GI50 (HT-29): > 100 µM (inactive) | GI50 (SF-295): > 100 µM (inactive) | GI50 (HL-60): > 100 µM (inactive) | GI50 (ACHN): > 100 µM (inactive) | GI50 (CAKI-1): > 100 µM (inactive) | GI50 (OVCAR-5): > 100 µM (inactive) | GI50 (SF-539): > 100 µM (inactive) | GI50 (SNB-19): > 100 µM (inactive) | GI50 (UACC-257): > 100 µM (inactive) | GI50 (SK-MEL-5): > 100 µM (inactive) | GI50 (OVCAR-3): > 100 µM (inactive) | GI50 (NCI-H460): > 100 µM (inactive) | GI50 (HOP-62): > 100 µM (inactive) | GI50 (M14): > 100 µM (inactive) | GI50 (K562): > 100 µM (inactive) | GI50 (HCT-15): > 100 µM | GI50 (LOX IMVI): > 100 µM (inactive) | GI50 (RXF 393): > 100 µM (inactive) | GI50 (SR): > 100 µM (inactive) | GI50 (U-251): > 100 µM (inactive) | GI50 (786-0): > 100 µM (inactive) | GI50 (A498): > 100 µM (inactive) | GI50 (Malme-3M): > 100 µM (inactive) | GI50 (SF-268): > 100 µM (inactive) | GI50 (CCRF-CEM): > 100 µM (inactive) | GI50 (SK-OV-3): > 100 µM (inactive) | GI50 (MOLT-4): > 100 µM (inactive) | GI50 (M19-MEL): > 100 µM (inactive) | GI50 (NCI-H226): > 100 µM (inactive) | GI50 (A549): > 100 µM (inactive) | GI50 (KM-20L2): > 100 µM (inactive) | GI50 (DLD-1): > 100 µM (inactive) | GI50 (KM12): > 100 µM (inactive) | GI50 (RPMI-8226): > 100 µM (inactive) | GI50 (OVCAR-8): > 100 µM (inactive) | GI50 (IGROV-1): > 100 µM (inactive) | GI50 (COLO 205): > 100 µM (inactive) | GI50 (HOP-92): > 100 µM (inactive) | GI50 (RXF 631): > 100 µM (inactive) | GI50 (HOP-18): > 100 µM (inactive) | GI50 (UO-31): > 100 µM (inactive) | GI50 (DMS-273): > 100 µM (inactive)
